No end group written: not given here.
Key:
K562 = assay: In vitro cytotoxic assay (CTL) of ImMucin-stimulated HLA-A2.1 positive T-cell clone; type: cell-based; details: K562 Human Myalo Leukeima, MUC1 +, ratio 1:50
Method: (§1) Effector cells were ImMucin specific enriched T-Cell clone. Viable lymphocytes (effector cells), were centrifugation, resuspended in RPMI-HEPES medium, and admixed at different ratios with 5×10^3 35S methionine-labeled, tumor cells. CTL assays were performed in U-shaped microtiter wells, at 37° C., 5% CO2 for 5 hours. Cultures were terminated by centrifugation at 1000 rpm for 10 min at […]. A total of 100 µl of the supernatants was mixed with scintillation fluid and measured in a □□ counter (Becton Dickinson Canberra Australia). Percentage of specific lysis was calculated as follows: % lysis=(cpm in experimental well−cpm spontaneous release)/(cpm maximal release−cpm spontaneous release)×100. Spontaneous release was determined by incubation of 100 µl-labeled target cells with 100 µl of medium. Maximal release was determined by lysis of target cells in 100 µl 10% TrytonX-100.
(§2) In order to further evaluate the class II/class I cross presentation as well as the specificity and function of the T-cell clones, their class I restricted lysis potential was analyzed. For this assay the clones were screened for Class I HLA-A2.1 expression and their potential to lyse MUC1 and HLA-A2.1 positive and negative cell-lines was evaluated. […] The results summarized in Table 10 show a MUC1 as well as HLA-A2.1-restricted lysis. A breast tumor cell such as MDA-MB-231 which expresses both MUC1 and HLA-A2.1 was lysed effectively (23%), while another breast tumor cell line MDA-MB-468 which expresses only MUC1 but not the HLA-2.1 was not lysed al all. Other control cell-lines didn't manifest any lysis (see table 10).

MDA-MB-231 = assay: as above; type: cell-based; details: MDA-MB-231 Human Brest Carcinoma, MUC1 +++, ratio 1:50
Method: as §1, §2

HT-29 = assay: as above; type: cell-based; details: HT-29 Human Colon Carcinoma, MUC1 −, ratio 1:50
Method: as §1, §2

MDA-MB-486 = assay: as above; type: cell-based; details: MDA-MB-486 Human Brest Carcinoma, MUC1 ++, ratio 1:50
Method: as §1, §2

Molt-4 = assay: as above; type: cell-based; details: Molt-4 Human T cell Leukemia, MUC1 −, ratio 1:50
Method: as §1, §2

PBMC = assay: Proliferation, direct presentation of peptide via PBMC (monocytes); type: cell-based, human
Method: (§3) Proliferation analysis was conducted in three different methods. In all three methods, plates were cultured for 3-5 days under visual control and then 0.5 […]Cu/well of 3[H] (Amersham) was added for additional culture of to 18 h at 37° C. In the last step, plates were harvested and the radioactive counts were measured in a □ counter. • 1. DC indirect presentation: In the first method, 100 µl of 2×10^6 thawed PBL were placed in U-shape Bottom 96 well plate (Nunc) with RPMI medium supplemented with 5% H AB serum, L-Glutamine, Sodium Pyruvate, MEM-EAGLE non-essential amino-acids, HEPES and Gentamycin. At the next stage 100 µl of 25×10^4 peptide-pulsed DC were added to each three wells of PBL and underwent proliferation analysis as described above. • 2. PBL direct presentation: In the 2nd method, 100 µl of 2×10^6 PBL were placed in Flat Bottom 96 well plates (Corning) and stimulated with different concentrations (0.05 ug/ml-2 ug/ml) of peptides. In the next step the cells underwent proliferation analysis as described above. • 3. PBMC direct presentation: In third method PNMC were used under similar conditions as described for the second method.
b. Direct presentation of the peptides via PBMC i.e. monocytes
Five experiments were performed according to the protocol described in material and methods with buffy-coat enriched PBLs obtained from six different naive donors (obtained from the Israeli blood bank).

PBL = assay: ELISA of cytokine secretion by PBL stimulated once with peptide-pulsed DC; type: cell-based, human
Method: Human PBMC were separated from buffy coat samples of naive donors using Ficoll UNI-SEPmaxi tube. Separated cells were suspended in RPMI medium supplemented with 10% FCS, L-Glutamine, Sodium Pyruvate, MEM-EAGLE non-essential amino-acids, HEPES and Gentamycin Sulphate (Bet-Haemek Industries, IL) and cultivated for 4 h at 37° C. in a culture dish (Corning 150 mm×25 mm). Adherent cells were collected and cultured for 7 days in serum free DCCM-1 medium supplemented with L-Glutamine, huIL-4 (1000 IU/ml) (Cytolab IL) and GM-CSF-80 ug/ml (Cytolab IL). On day seven floating cells were collected and loaded with 50 ug/ml of examined peptide for 18 h at 37° C.
Cytokine release was studied during the culture of stimulated T-cells. The evaluated samples were collected from the T cell culture medium on day 2, 3, and 5 and stored until use at −20° C.
[…] of the selected capture antibody (e.g. anti-Hu IFN-Gamma, or anti-Hu TNF-alfa or anti IL-2) were added to each well at the final concentration of 5 μg/ml in PBS. Plates were incubated for 2 h at R.T. or over night at 4° C. Next, […] of blocking solution were added for an incubation of 2 h at R.T. […] of evaluated samples were added in duplicate into 2 wells for 2 hours at RT. After 2 h of incubation at R.T plates were washed λ4 times in washing solution. In the next step, a Biotin-conjugated detection antibody (relevant to coated antibody) was added at a final concentration of 10 μg/ml in total volume of 100 μl for 1 h at R.T. Finally, 100 μl/well working dilution (1:10000 in Blocker solution) of Streptavidin-HRP were added to each well and incubated for 1 h at R.T.
Plates were washed λ6 times with PBS-Tween (0.4%) and 100 μl/well of TMB/E Solution (CHEMICON, Catalog #ES001) was added. The plates were then exposed until blue color appeared in the wells of the positive control and no color was detected in the blank wells. To stop the color reaction, 50 μl/well of 10% of Sulfuric acid was added. The plates were counted in ELISA-Reader using a 450 nm filter.

[1] = tested on: lymphocytes from naive donors; assay: Proliferation assay, kinetics of lymphocyte activation as summarised in text (presentation mode not stated); type: cell-based, human; details: summary of five experiments
Method: as §3
A different parameter for assessing the properties of ImMucin and the other VXL-peptide epitopes is by analyzing the time until a maximal peak of activity occurs and the optimal dose for maximal stimulation. Maximal peak of PBL activation is determined when <50% of the PBLs appear in clumps. In these experiments, the kinetic (time) in the proliferation of lymphocytes from the six naive donors stimulated at a fix dose of 0.05-1 ug/ml by ImMucin and other VXL-Peptides, was observed.

[2] = peptide DC ratio 16:1, one out of five experiments, six donors
[3] = peptide pulsed DC ratio 16:1, one out of two experiments, two donors (Table 12)

Sequence: MTPGTQSPFFLLLLLTVLTVV [ImMucin]
- Lysis % (1:50) (K562): 1.7%
- Lysis % (1:50) (MDA-MB-231): 23%
- Lysis % (1:50) (HT-29): 0%
- Lysis % (1:50) (MDA-MB-486): 0%
- Lysis % (1:50) (Molt-4): 1.1%
- PBL Index of stimulation (SI) via PBMC (PBMC; naive donors, representative of 5 experiments): 2
- Optimal dose via PBMC (PBMC; optimal dose required for PBL activation, average of 5 experiments, six donors): 0.05 to 1 µg/mL
- Peak of Proliferation (Hours) via PBMC (PBMC; visual inspection daily during 5 days, average of 5 experiments): 120 h
- IL-2 (PBL; [2]): 3.62 ng/mL
- TNF-Alfa (PBL; [2]): 11.6 ng/mL
- IFN-gamma (PBL; [3]): 0.5 ng/mL
- TNF-Alfa (PBL; [3]): 11.6 ng/mL
- peak of proliferation / maximum stimulation [1]: ~96 h
